Each structure is given as a SMILES string.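 Assay format: 96-well plates, 48-hour exposure. GI50 is the concentration that inhibits growth by half.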 Activity calls are given as the source filed them. Cut-off read from the data, not from the text of the source: active = GI50 up to about 1.1 µM and inactive = higher. Bounds are passed on as bounds.

Some test systems named below: 786-0; ACHN; EKVX; HOP-92; Hs-578T; MDA-MB-435; MDA-N; NCI-H460; NCI/ADR-RES; OVCAR-8; RPMI-8226; SF-539; SK-MEL-28; SNB-19; SNB-75; SR; SW-620; T47D; UACC-62; NCI-H226.
Assay in all cases: NCI-60 cell line screen, 48 h

With `CC1=NN(C(=O)CC(=O)Nc2cccc(Cl)c2)C(=O)C1/N=N/c1ccc(C(=O)O)cc1` (centres undefined), the GI50 with 786-0 was > 100 µM (inactive); in the assay with ACHN, > 100 µM (inactive); with EKVX, > 100 µM (inactive); in the assay with HOP-92, 27.7 µM (inactive); in the assay on Hs-578T it was > 100 µM (inactive); with MDA-MB-435, > 100 µM (inactive). Besides, the GI50 with MDA-N, in the assay with NCI-H460, in the assay on NCI/ADR-RES, in the assay on OVCAR-8, in the assay with RPMI-8226 and with SF-539 was > 100 µM (inactive) each time. In addition, the GI50 in the assay on SK-MEL-28 is > 100 µM (inactive); with SNB-19, > 100 µM (inactive); in the assay with SNB-75, 52.1 µM (inactive); in the assay on SR it was 48.9 µM (inactive); with SW-620 it was > 100 µM (inactive); in the assay on T47D it was 37.2 µM (inactive). Also, the GI50 in the assay on UACC-62 is > 100 µM (inactive).

For `Cc1ccc(S(=O)(=O)N2CCN(CCO)CCN(S(=O)(=O)c3ccc(C)cc3)CCN(CCO)CC2)cc1`, the GI50 with 786-0 is 23.6 µM (inactive); in the assay on ACHN, 31 µM (inactive); with EKVX it was 18.2 µM (inactive); with HOP-92 it was 21.5 µM (inactive); with Hs-578T it was 30.1 µM (inactive); in the assay on MDA-MB-435 it was 15.1 µM (inactive). The GI50 is 27.2 µM (inactive) in the assay on MDA-N; 20.9 µM (inactive) in the assay on NCI-H226; 14.3 µM (inactive) in the assay with NCI-H460; 18.5 µM (inactive) with NCI/ADR-RES; 28 µM (inactive) in the assay with OVCAR-8; 15.8 µM (inactive) with SF-539. The GI50 was 16.3 µM (inactive) in the assay with SK-MEL-28; 37.8 µM (inactive) in the assay on SNB-19; 26.3 µM (inactive) with SNB-75; 12.3 µM (inactive) in the assay with SR; 33.7 µM (inactive) with SW-620; 17.5 µM (inactive) in the assay on T47D. Also, the GI50 in the assay with UACC-62 is 18.2 µM (inactive).

Turning to `O=c1c2c3ccccc3[nH]c2c2cccc3c2n1CCC3`, the GI50 was 4.27 µM (inactive) in the assay on 786-0; 41.1 µM (inactive) in the assay on ACHN; 20.6 µM (inactive) in the assay on EKVX; 40.2 µM (inactive) with HOP-92; 21.2 µM (inactive) in the assay with Hs-578T; 54.6 µM (inactive) in the assay with MDA-MB-435. For the same compound, the GI50 with MDA-N was 66.5 µM (inactive); with NCI-H226, 50.6 µM (inactive); with NCI-H460, 34.8 µM (inactive); with NCI/ADR-RES it was 50 µM (inactive); in the assay on OVCAR-8, 50.9 µM (inactive); in the assay on SF-539, 40.1 µM (inactive). In addition, the GI50 with SK-MEL-28 was 41.8 µM (inactive); in the assay with SNB-19 it was > 100 µM (inactive); in the assay on SNB-75 it was 50.4 µM (inactive); in the assay with SR, 25.9 µM (inactive); with SW-620, 43.3 µM (inactive); in the assay on T47D, 61 µM (inactive). The GI50 in the assay with UACC-62 is 36.5 µM (inactive).

For the compound `O=C1OC(c2ccccc2)=N/C1=C\c1cccc(F)c1`, the GI50 with 786-0 was 51.9 µM (inactive); with ACHN, > 100 µM (inactive); in the assay on EKVX, > 100 µM (inactive); in the assay on HOP-92, > 100 µM (inactive); in the assay with Hs-578T it was 36.3 µM (inactive); in the assay on MDA-MB-435, 75 µM (inactive). Besides, the GI50 in the assay with MDA-N is 56.6 µM (inactive); with NCI-H226, 25.9 µM (inactive); with NCI-H460 it was 60.5 µM (inactive); in the assay on NCI/ADR-RES, 27.7 µM (inactive); with OVCAR-8, 26.2 µM (inactive); in the assay on RPMI-8226 it was 19.7 µM (inactive). The GI50 is 96.6 µM (inactive) in the assay with SK-MEL-28; 55 µM (inactive) in the assay with SNB-19; 64.3 µM (inactive) in the assay with SNB-75; 22.9 µM (inactive) in the assay on SR; > 100 µM (inactive) in the assay with SW-620; > 100 µM (inactive) in the assay on T47D. Also, the GI50 with UACC-62 is > 100 µM (inactive).

Turning to `O=C(O)CCCC(=O)Nn1c(Cc2ccc(Cl)cc2)n[nH]c1=O`, the GI50 in the assay on 786-0, in the assay with ACHN, in the assay with EKVX, in the assay with HOP-92, in the assay with Hs-578T and with MDA-MB-435 was > 100 µM (inactive) in each case. Also, the GI50 in the assay with MDA-N, with NCI-H226, in the assay on NCI/ADR-RES, in the assay on OVCAR-8, in the assay on RPMI-8226 and with SK-MEL-28 was > 100 µM (inactive) each time. The GI50 is > 10 µM (inactive) with SNB-75; > 100 µM (inactive) with SR; > 100 µM (inactive) with SW-620; > 100 µM (inactive) in the assay with T47D; > 100 µM (inactive) in the assay on UACC-62.

For `Cn1c([C@H](C#N)C(=O)c2cc(O)ccc2[N+](=O)[O-])nc2ccccc21`, the GI50 is > 100 µM (inactive) in the assay with 786-0; > 100 µM (inactive) in the assay with ACHN; > 100 µM (inactive) with EKVX; > 100 µM (inactive) with HOP-92; > 100 µM (inactive) in the assay on Hs-578T; 9.51 µM (inactive) in the assay on MDA-MB-435. Besides, the GI50 with MDA-N, in the assay with NCI-H460, with NCI/ADR-RES, with OVCAR-8, with RPMI-8226 and with SF-539 was > 100 µM (inactive) in each case. Also, the GI50 is > 100 µM (inactive) in the assay with SK-MEL-28; > 100 µM (inactive) in the assay with SNB-19; > 100 µM (inactive) in the assay with SNB-75; 5.98 µM (inactive) with SR; > 100 µM (inactive) in the assay on T47D; > 100 µM (inactive) in the assay with UACC-62.

Turning to `COC(=O)[C@@H]1COC(C(C)(C)C)N1C(=O)C(c1ccccc1)c1ccccc1` (some centres undefined), the GI50 in the assay with 786-0 is 46.2 µM (inactive); in the assay with ACHN, 69.3 µM (inactive); in the assay with EKVX, 55.7 µM (inactive); in the assay on HOP-92 it was 37 µM (inactive); in the assay with Hs-578T it was 55.5 µM (inactive); with MDA-MB-435, 36.7 µM (inactive). Moreover, the GI50 in the assay on MDA-N is 26 µM (inactive); in the assay with NCI-H226, 49.7 µM (inactive); in the assay with NCI-H460, 40.3 µM (inactive); in the assay on NCI/ADR-RES, 34 µM (inactive); with OVCAR-8 it was 44.1 µM (inactive); in the assay with SF-539, 28.7 µM (inactive). The GI50 with SK-MEL-28 was > 100 µM (inactive); with SNB-19, 40.9 µM (inactive); in the assay on SNB-75, 32.4 µM (inactive); in the assay on SR, 0.446 µM (active); in the assay with SW-620 it was 43.8 µM (inactive); in the assay with T47D, 62.8 µM (inactive). The GI50 in the assay with UACC-62 was 44.1 µM (inactive).

`c1csc(-c2nccc3c2[nH]c2ccccc23)c1`: the GI50 in the assay on 786-0 was 18.1 µM (inactive); with ACHN, 24.5 µM (inactive); with EKVX, 46.6 µM (inactive); in the assay on HOP-92 it was 22.3 µM (inactive); in the assay on Hs-578T, 46 µM (inactive); in the assay on MDA-MB-435 it was 18.3 µM (inactive). In addition, the GI50 is 17.5 µM (inactive) with MDA-N; 12 µM (inactive) in the assay with NCI-H226; 23.9 µM (inactive) in the assay with NCI-H460; 22.2 µM (inactive) with NCI/ADR-RES; 20.5 µM (inactive) in the assay on OVCAR-8; 16.4 µM (inactive) in the assay on SF-539. In addition, the GI50 with SK-MEL-28 is 25.6 µM (inactive); in the assay with SNB-19 it was 27.7 µM (inactive); in the assay with SNB-75, 14.1 µM (inactive); in the assay with SR, 21 µM (inactive); in the assay with SW-620, 21 µM (inactive); in the assay with T47D, 11.8 µM (inactive). For the same compound, in the assay with UACC-62, the GI50 is 30.2 µM (inactive).

The values are drawn from ChEMBL document CHEMBL1201862, “PubChem BioAssay data set” (2004).
